# Results: publication PMC4465063 (Mucosal immunology, 2014)
# Legend:
# [1] = test system: purified cathepsin G; conditions: purified enzyme, in vitro; cited from earlier work
# [2] = test system: purified NE; conditions: purified enzyme, in vitro; cited from earlier work
# [3] = test system: cathepsin G; conditions: cited from earlier work
# [4] = test system: neutrophil elastase (NE); conditions: cited from earlier work
# [5] = test system: plasmin; conditions: cited from earlier work
# [6] = test system: neutrophils; conditions: in vitro; cited from earlier work
# [7] = test system: K. pneumoniae; test: In vivo neutrophil microbial killing assay; parameters: species or system Klebsiella pneumoniae strain 43816; conditions: thbs1^−/− mice; 10 µg/mouse i.p. 30 min prior to K. pneumoniae i.p.
substance,measurement,setting,value
Ac-DNCPFHYNP-NH2 [DP-9],inhibition of purified cathepsin G,[1],ability to inhibit activity of purified cathepsin G in vitro
Ac-DNCPYVPNA-NH2 [DA-9],inhibition of purified NE,[2],without reactive-site sequence similarity or known inhibitory activity
same,inhibition of purified cathepsin G,[1],without reactive-site sequence similarity or known inhibitory activity
Ac-DNCQYVYNV-NH2 [DV-9],inhibition of purified NE,[2],inhibitory activity to both purified cathepsin G and NE
same,inhibition of purified cathepsin G,[1],inhibitory activity to both purified cathepsin G and NE
TSP-1: matricellular protein that exists as a trimer of identical ~150–180 kDa subunits tethered together by disulfide bonds,reversible inhibition of CG,[3]; in the absence of calcium,enhanced
same,stoichiometry: mol of cathepsin G bound per 1 mol of TSP-1 trimer,[3]; in the presence of calcium,2.9 ± 0.4 mol
same,inhibition of purified cathepsin G,"[3]; purified enzyme, in vitro",binds and competitively inhibits
same,Kd,"[3]; read-out: site binding constant, TSP-1 trimer, cathepsin G, in the presence of calcium",7 ± 3.5 nM
same,reversible inhibition of NE,[4]; in the absence of calcium,enhanced
same,stoichiometry: mol of NE bound per 1 mol of TSP-1 trimer,[4]; in the presence of calcium,2.7 ± 0.3 mol
same,inhibition of purified NE,"[4]; purified enzyme, in vitro",binds and competitively inhibits
same,Kd,"[4]; read-out: site binding constant, TSP-1 trimer, NE, in the presence of calcium",57 ± 13 nM
same,inhibition of plasmin,"[5]; in vitro, cleavage of fibrinogen",competitive inhibitor
same,predicted stoichiometry with plasmin,[5]; stoichiometric predictions,one mole of TSP-1 interacting with one mole of plasmin
same,neutrophil motility and chemotaxis,[6],can bind and induce the motility and chemotaxis of neutrophils in vitro
rTSP-1: recombinant TSP-1,bacterial killing function of thbs1^−/− neutrophils,[7],eliminated the enhanced bacterial killing function of thbs1^−/− neutrophils near to the level of WT neutrophils
